From ChEMBL document CHEMBL3352710, “Endoperoxide polyketides from a Chinese Plakortis simplex: further evidence of the impact of stereochemistry on antimalarial activity of simple 1,2-dioxanes” (Bioorg Med Chem, 2014) come the findings set out here.

In assay [1] the test system is Plasmodium falciparum. Kind of assay: Antimalarial activity against chloroquine-sensitive Plasmodium falciparum D10 after 72 hrs by lactate dehydrogenase assay. The format is functional.
For assay [2], the system named is Plasmodium falciparum. The assay is described as follows: Antimalarial activity against chloroquine-resistant Plasmodium falciparum W2 after 72 hrs by lactate dehydrogenase assay. The format is functional, organism-based. The conditions noted are these: W2, 72 h.
Setting [3] is: Plasmodium falciparum, D10, 72 h, read-out: IC50.

On to `CCCC[C@H](CC)C[C@@]1(CC)C[C@H](CC)[C@H](CC(=O)OC)OO1`, for which the results for the IC50 in the assay with Plasmodium falciparum [1] (setting [3]) and in the assay with Plasmodium falciparum [2] were 6.18 µM and 4.98 µM, respectively.
For `CCCCC(C)C[C@H](CC)C[C@@]1(C)C[C@H](CC)[C@@H](CC(=O)OC)OO1` (stereo not given in full), in that order: 5.12 µM and 4.1 µM.
As for `CC/C=C/[C@H](CC)C[C@]1(CC)C=C(CC)[C@H](CC(=O)OC)OO1`, the values for the IC50 in the assay with Plasmodium falciparum [1] (setting [3]) and in the assay on Plasmodium falciparum [2] were 3.89 µM and 2.91 µM, respectively.
For `CCCC[C@H](CC)C[C@@]1(C)C[C@@H](CC)[C@@H](CC(=O)OC)OO1`, in that order: 0.9 µM and 0.43 µM.
`CCCC[C@H](CC)C[C@@]1(CC)C[C@H](CC)[C@@H](CC(=O)OC)OO1`: the IC50 entry in the assay on Plasmodium falciparum [1] was “Not Active”; in the assay on Plasmodium falciparum [2] it was 11.4 µM.
Regarding `CCCC[C@H](CC)C[C@]1(CC)C=C(CC)[C@H](CC(=O)OC)OO1`, the IC50 in the assay on Plasmodium falciparum [1] (setting [3]) turned out to be 4.05 µM; in the assay with Plasmodium falciparum [2] it was 2.7 µM.
With `C[C@@H]1CC[C@H]2[C@@H](C)C(=O)O[C@@H]3O[C@@]4(C)CC[C@@H]1[C@]32OO4` [ARTEMISININ], in the assay with Plasmodium falciparum [2], the midpoint of inhibition, the IC50, lay at 0.009 µM.
For `CCCC[C@H](C)C[C@]1(CC)C=C(CC)[C@H](CC(=O)OC)OO1`, the values for the 50% inhibitory concentration (IC50) in the assay with Plasmodium falciparum [1] (setting [3]) and with Plasmodium falciparum [2] were 1.77 µM and 1.56 µM, respectively.
